Test results taken from patent US11849728B2, “Method for controlling soybean rust fungus having resistance against Qo site inhibitor” (SUMITOMO CHEMICAL COMPANY, LIMITED, priority 2018, dated 2023).

System: soybean rust fungus (Phakopsora pachyrhizi) having an amino acid substitution of F129L on mitochondrial cytochrome b protein
Assay: Leaf disk test for control of soybean rust (Test Example 1 / Comparative Test Example 1)
Assay type: in vivo
Conditions: method of Test Example 1
Method: Soybean leaf (cv; Kurosengoku) was punched out to 1 cm diameter to prepare a leaf disk. Each 1 mL of an agar medium (agar concentration 1.2%) was dispensed in 24 well microplate. A piece of the leaf disk was placed on each well. To a mixture of 0.5 μL of Sorpol (registered trademark) 1200KX, 4.5 μL of DMSO, and 5 μL of xylene was added 20 μL of a solution containing 10000 ppm of the test compound in DMSO. The resulting mixture was diluted with ion exchange water to prepare a spray solution containing a predetermined concentration of the test compound. The spray solution was sprayed in 10 μL per one leaf disk. After 1 day, an aqueous suspension of spores of soybean rust fungus (Phakopsora pachyrhizi) having an amino acid substitution of F129L on mitochondrial cytochrome b protein (1.0×10^5/mL) was inoculated onto the leaf disks. After the inoculation, the microplate was placed in a growth chamber (light on for 6 hours, light off for 18 hours, 23° C. temperature, 60% humidity). After 1 day, the leaf disks were air-dried to disappear water droplets on the surface of the leaf disk, and the microplate was placed again in the growth chamber for 12 days. Thereafter, a lesion area of soybean rust disease was assessed. […] Here the untreated means that the spray solution containing the test compound was not sprayed onto the leaf disk.
The test was conducted by using as a test compound the compound 3 or 8 of the present invention, the present compound 6, 12, 13, 22, 38, 40, 48, 51, 64 or 84, pyraclostrobin, azoxystrobin, picoxystrobin, orysastrobin, dimoxystrobin, metominostrobin, or pyribencarb at 12.5 ppm or 3.1 ppm according to a method described in the Test Example 1. The results are indicated in [Table A], [Table B], and [Table C].

| SMILES | Lesion area (%) (3.1 ppm) | Lesion area (%) (12.5 ppm) |
| --- | --- | --- |
| CO/C=C(\Oc1cc(/C=C/C2CC2)ccc1C)C(=O)OC [Compound 3 of the present invention] | 10 | 0 |
| CO/N=C(\Cc1cc(C#CC(C)(C)C)ccc1C)C(=O)OC [Present Compound 6] | 0 | 0 |
| CNC(=O)/C(Cc1cc(C#CC(C)(C)OC)ccc1C)=N/OC [Present Compound 12] | 0 | 0 |
| COc1nn(C)c(=O)n1Cc1cc(C#C[Si](C)(C)C)ccc1C [Present Compound 13] | 30 | 0 |
| CO/C=C(\Oc1cc(-c2ccc(F)cc2)ccc1C)C(=O)OC [Present Compound 22] | 10 | 0 |
| Cc1ccc(-c2ccccc2)cc1Cn1c(C(F)F)nn(C)c1=O [Present Compound 40] | 0 | 0 |
| CO/C=C(\Oc1cc(/C(C)=N/OCc2cccc(C)c2)ccc1C)C(=O)OC [Present Compound 48] |  | 0 |
| CCCO/N=C(\C)c1ccc(C)c(C/C(=N\OC)C(=O)NC)c1 [Present Compound 51] |  | 0 |
| CO/C=C(\Oc1cc(-c2cccs2)ccc1C)C(=O)OC [Present Compound 64] | 10 | 0 |
| CO/C=C(\Oc1cc(/C(C)=N/OCC2CCC2)ccc1C)C(=O)OC [Present Compound 84] |  | 0 |
| CO/C=C(/C(=O)OC)c1ccccc1Oc1cc(Oc2ccccc2C#N)ncn1 [azoxystrobin, reference compound] | 100 | 100 |
| CNC(=O)/C(=N/OC)c1ccccc1COc1cc(C)ccc1C [dimoxystrobin, reference compound] | 100 | 100 |
| CNC(=O)/C(=N/OC)c1ccccc1Oc1ccccc1 [metominostrobin, reference compound] | 100 | 100 |
| CNC(=O)/C(=N/OC)c1ccccc1CO/N=C(C)/C(=N/OC)C(/C)=N/OC [orysastrobin, reference compound] | 100 | 100 |
| CO/C=C(/C(=O)OC)c1ccccc1COc1cccc(C(F)(F)F)n1 [picoxystrobin, reference compound] | 100 | 100 |
| COC(=O)N(OC)c1ccccc1COc1ccn(-c2ccc(Cl)cc2)n1 [pyraclostrobin, reference compound] | 100 | 100 |
| COC(=O)NCc1cc(/C(C)=N/OCc2cccc(C)n2)ccc1Cl [pyribencarb, reference compound] | 100 | 100 |
